Molecules are shown by their SMILES.

The text below walks through data of patent US8173392B2, “In vivo incorporation of unnatural amino acids” (The Scripps Research Institute, priority 2001, dated 2012).

For data set [1], the system named is DH10B harboring pBLAM-YQRS and pACYsupA38. The data set can be described thus: cell toxicity screen of unnatural amino acids in glycerol minimal media. Type of data set: cell-based, E. coli. Conditions: concentration used as lethal allele at IC50 level.
Description: For example, a variety of unnatural amino acids are optionally screened in minimal media for toxicity to cells. Toxicities are typically sorted into five groups: (1) no toxicity, in which no significant change in doubling times occurs; (2) low toxicity, in which doubling times increase by less than about 10%; (3) moderate toxicity, in which doubling times increase by about 10% to about 50%; (4) high toxicity, in which doubling times increase by about 50% to about 100%; and (5) extreme toxicity, in which doubling times increase by more than about 100%. […] The toxicity of the amino acids scoring as highly or extremely toxic is typically measured as a function of their concentration to obtain IC50 values.
A variety of unnatural amino acids and α-hydroxy acids of interest, obtained commercially or by short syntheses from available starting materials (I. Shin, B. Herberich, A. Varvak, T. Magliery, P. Schultz, unpublished results, were screened for cell toxicity). […] Each amino acid wasscreened at 1 mM in glycerol minimal media for toxicity to cells, e.g., to DH10B harboring pBLAM-YQRS and pACYsupA38.
The toxicity of amino acids scoring as highly or extremely toxic is typically measured as a function of their concentration to obtain IC50 values. […]
The subject of data set [2] is glutamine uptake pathway of DH10B. The data set is described as follows: complementation of toxic glutamine alleles S27 and S47 (cellular uptake). The format is cell-based, E. coli. Conditions: 2 mM, complementation of S27 (100 μM) and S47 (30 μM). From the text:
To identify possible uptake pathways for toxic amino acids, toxicity assays are optionally repeated at IC50 levels, e.g., in media supplemented with an excess of a structurally similar natural amino acid. For toxic amino acids, the presence of excess natural amino acid typically rescues the ability of the cells to grow in the presence of the toxin, presumably because the natural amino acid effectively outcompetes the toxin for either cellular uptake or for binding to essential enzymes. In these cases, the toxic amino acid is optionally assigned a possible uptake pathway and labeled a “lethal allele” whose complementation is required for cell survival. These lethal alleles are extremely useful for assaying the ability of cells to uptake nontoxic unnatural amino acids. […] A lack of complementation is inconclusive. For example studies and conclusions see the examples provided below.
For toxic amino acids, the presence of excess natural amino acid rescued the ability of the cells to grow in the presence of the toxin, presumably because the natural amino acid effectively outcompeted the toxin for either cellular uptake or for binding to essential enzymes. […]
Using this method, the ability of 22 glutamine and glutamic acid analogs to be taken up by DH10B was evaluated. […]

The term IC50 denotes the concentration needed to halve the response being measured. For `NNC(=O)CCC(N)C(=O)O` (centres unmarked) [S47], the IC50 in data set [1] was 30 µM. In addition, the “cellular uptake, possibly via the glutamine uptake pathway” value in data set [2] is given as “uptaken by cells”.
